From patent US20040171073A1, “Compounds for modulation of cholesterol transport” (Massachusetts Institute of Technology, priority 2002, published 2004)
“Also recorded” adds a separate entry of the source.

How the values were obtained:
murine SR-BI [1] = target: T1, murine SR-BI (Mus musculus, UniProt Q61009); test: Uptake of DiI from DiI-HDL by ldlA[mSR-BI] cells (high throughput screen and concentration dependence); assay type: cell-based
T1 construct: expressed in transfected cells; host or cells: ldlA-7 (LDL receptor deficient Chinese hamster ovary cells)
T1 sequence (Q61009 1-509): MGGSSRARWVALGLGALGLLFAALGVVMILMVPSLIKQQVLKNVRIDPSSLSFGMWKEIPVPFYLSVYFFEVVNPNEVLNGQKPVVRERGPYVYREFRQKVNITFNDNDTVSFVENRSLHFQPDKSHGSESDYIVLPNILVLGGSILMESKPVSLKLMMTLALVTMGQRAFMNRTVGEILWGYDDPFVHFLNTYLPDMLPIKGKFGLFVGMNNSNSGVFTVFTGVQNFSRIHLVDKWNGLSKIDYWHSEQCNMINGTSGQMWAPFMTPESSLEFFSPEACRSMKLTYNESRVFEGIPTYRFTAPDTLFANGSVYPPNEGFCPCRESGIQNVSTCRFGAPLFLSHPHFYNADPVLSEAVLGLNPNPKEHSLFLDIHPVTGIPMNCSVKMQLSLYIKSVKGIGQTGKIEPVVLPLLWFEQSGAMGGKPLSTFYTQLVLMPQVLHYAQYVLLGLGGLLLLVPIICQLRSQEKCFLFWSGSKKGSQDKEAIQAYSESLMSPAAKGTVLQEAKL

murine SR-BI [2] = target: T1, murine SR-BI; test: Uptake of [3H]cholesteryl ether from [3H]CE-HDL by ldlA[mSR-BI] cells; assay type: cell-based
Protocol: (§1) Cells were pre-incubated with BLTs for 1 hr (or 2.5 hrs for transferrin, EGF and cholera toxin uptake experiments) and all the experiments were performed at 37° C. Detailed characterization of the BLTs and their effects was performed with compounds whose identities and purities were confirmed by LC-MS.
(§2) Assays for the uptake of lipids from DiI-HDL and [^3]CE-HDL, efflux of [^3H]cholesterol from labeled cells, and ^125I-HDL binding were performed as described by Acton et al. Science (1996) January 26;271(5248):518-20; Gu, et al. J Biol. Chem. (2000) September 29;275(39):29993-30001; and Ji, et al., J. Biol. Chem. (1997) 272, 20982-5. In some experiments, values were normalized so that the 100% of control represents activity in the absence of compounds and 0% represents activity determined in the presence of a 40-fold excess of unlabeled HDL or, for Y1-BS1 cells, in the presence of a 1:500 dilution of the KKB-1 blocking antibody (Gu, et al., 2000, generous gift from Karen Kozarsky). The amounts of cell-associated [^3H]cholesteryl ether are expressed as the equivalent amount of [^3H]CE-HDL protein (ng) to permit direct comparison of the relative amounts of ^125I-HDL binding and [^3H]CE uptake.

SR-BI = target: T2, SR-BI (Mus musculus, UniProt Q61009); test: Uptake of [3H]CE from [3H]CE-HDL by Y1-BS1 adrenocortical cells; assay type: cell-based, murine; conditions: inhibition, n=2, read-out: (A) EC50 [^3H]CEt HDL uptake (Y1-BS1 cells)
T2 construct: endogenous in cells; host or cells: Y1-BS1 murine adrenocortical cells (ACTH induced)
T2 sequence (Q61009 1-509): T1 sequence (Q61009 1-509)
Text: Biol. Chem. 273, 26338-48; Gu, et al. (2000) J. Biol. Chem. 275, 29993-30001; Acton, et al. (1994) J. Biol. Chem. 269, 21003-9; Pitas, et al. (1981) Arteriosclerosis 1, 177-85). LDL receptor deficient Chinese hamster ovary cells that express low levels of endogenous SR-BI, ldlA-7 (Kingsley, et al. (1984) Proc. Nat. Acad. Sci. USA 81, 5454-8), ldlA-7 cells stably transfected to express high levels of murine SR-BI (ldlA[mSR-BI])(Acton, et al., 1996), Y1-BS1 murine adrenocortical cells that express high levels of SR-BI after induction with ACTH (Rigotti, et al. (1996) J. Biol. Chem. 271, 33545-9), monkey kidney BS-C1 cells (Kapoor, et al. (2000) Journal of Cell Biology 150, 975-88) and HeLa cells (Temel, et al. (2002) J Biol Chem 8, 8) were maintained as previously described.
as §1, §2

murine SR-BI [3] = target: T1, murine SR-BI; test: Efflux of [3H]cholesterol from ldlA[mSR-BI] cells to HDL; assay type: cell-based; conditions: inhibition of efflux to HDL, mean ± SD, n=3
Protocol: as §1, §2
In addition to mediating selective lipid uptake from HDL, SR-BI can facilitate the efflux of unesterified cholesterol from cells to HDL particles (Jian, et al. (1998) J Biol Chem 273, 5599-606. Ji, et al. (1997) J. Biol. Chem. 272, 20982-5). To determine if the BLTs could inhibit this SR-BI-mediated lipid transport activity, cells were labeled with [^3H]cholesterol and its efflux to unlabeled HDL measured in the presence or absence of the BLTs. (FIG. 2C, table II). Cells were incubated for 3 hrs in the absence (top panels) or presence (bottom panels) of 50 micromolar BLT-1 (MIT 9952-53) and epifluorescence light microscopy was used to monitor the following cellular activities: clathrin-dependent endocytosis of fluorescently labeled transferrin (A,B; HeLa cells) and EGF (C,D; HeLa cells); clathrin-independent endocytosis of fluorescently labeled cholera toxin (E, F; BSC-1 cells), and transport of the temperature sensitive fluorescent membrane protein VSVG^ts045-EGFP from the ER to the cell surface (G,H; BSC-1 cells). In addition, the intracellular distributions of the actin cytoskeleton (visualized with rhodamine labeled phalloidin, I,J; ldlA-[mSRBI] cells) and the tubulin network (visualized with fluorescently labeled antibodies specific to y-tubulin, K,L; BSC-1 cells) were determined. BLT-1 (MIT 9952-53) and the other BLTs (not shown) had no effects on any of these cellular properties or activities.

murine SR-BI [4] = target: T1, murine SR-BI; test: 125I-HDL binding to ldlA[mSR-BI] cells
Protocol: as §1, §2
It was initially expected that the BLTs would function by inhibiting HDL binding to SR-BI. However, when cells were incubated with a sub-saturating concentration of either [^3H]CE-HDL or ^125I-labeled HDL (^125I-HDL) (10 μg protein/ml) and increasing amounts of compound (FIG. 5), the decreases in [^3H]CE uptake (solid lines, no symbols, data from FIG. 2B) and [3H]cholesterol efflux (dashed lines, data from FIG. 2C) were accompanied by corresponding increases in ^125I-HDL binding (solid lines, square symbols). The concentration dependence of ^125I-HDL binding was determined in the presence or absence of BLTs at their ICCE95 concentrations (FIG. 6 and Table II).

murine SR-BI [5] = target: T1, murine SR-BI; test: Rate of 125I-HDL dissociation from cells; conditions: dissociation of 125I-HDL from ldlA[mSR-BI] cells in presence of BLT; no BLT control 0.11; n=2; read-out: (B) Binding Parameters Koff (converted)
Protocol: The rates of HDL dissociation from cells were determined by incubation of the cells with ^125I-HDL (10 μg protein/ml, 2 hrs, 37° C.) with and without BLTs. The medium was then either replaced with the same medium in which the ^125I-HDL was substituted by a 40-fold excess of unlabeled HDL or a 40-fold excess of unlabeled HDL was added to the labeled incubation medium. The amounts of cell-associated ^125I-HDL were then determined as a function of time. The two methods gave similar results.

HeLa cells = test: Receptor mediated endocytosis of labeled transferrin and EGF, fluorescence microscopy; assay type: cell-based; conditions: BLTs at ICCE95, 50 micromolar BLT-1, 3 hrs
BSC-1 cells [6] = assay type: cell-based, monkey; conditions: BLTs at ICCE95, 50 micromolar BLT-1, 3 hrs
BSC-1 cells [7] = assay type: cell-based, monkey
ldlA[mSR-BI] cells = test: Distribution of actin and tubulin networks, fluorescence microscopy; assay type: cell-based, Chinese hamster; conditions: BLTs at ICCE95; 50 micromolar BLT-1, 3 hrs

Compound: CCCCCCC1CCC/C1=N\NC(N)=S (stereo not shown) [MIT 9952-53]
- ENDOHDL Test 1 (murine SR-BI [1]; Test 1): 0.53
- ENDOHDL Test 2 (murine SR-BI [1]; Test 2): 0.46
- EC50 (murine SR-BI [1]; ldlA[mSR-BI] cells, inhibition, mean ± SD, n=3): 60 ± 40 nM
- Inhibition of SR-BI-mediated lipid transport / DiI uptake, concentration range in words (murine SR-BI [1]; ldlA[mSR-BI] cells, listed as BLT-1): low nanomolar concentration range; also recorded: inhibited in the nanomolar range
- ICCE95 concentration (inhibits [3H]CE uptake by 95%) (murine SR-BI [2]): 1 µM
- EC50 (murine SR-BI [2]; inhibition, mean ± SD, n=6 (n=5 where footnoted), read-out: (A) EC50 [^3H]CEt HDL uptake): 110 ± 80 nM
- EC50 (SR-BI): 380 nM
- EC50 (murine SR-BI [3]): 150 ± 90 nM
- (B) Binding Parameters Bmax (murine SR-BI [4]; 125I-HDL binding sites in presence of BLT at its ICCE95, no BLT control 100.0 ± 18.4): 95.8 ± 10.1%
- Effect on HDL binding to SR-BI (murine SR-BI [4]; ldlA[mSR-BI] cells): enhanced
- EC50 (murine SR-BI [4]; ldlA[mSR-BI] cells, enhancement of HDL binding, 10 μg protein/ml HDL, mean ± SD, n=3, read-out: (A) EC50 ^1nI-HDL binding): 88 ± 50 nM
- koff (murine SR-BI [5]): 0.001 s⁻¹
- Uptake and intracellular distribution of labeled transferrin and EGF (clathrin-dependent endocytosis) (HeLa cells): no effects
- Uptake of labeled cholera toxin (clathrin-independent endocytosis) (BSC-1 cells [6]): no effects
- Secretory pathway: transport of VSVGts045-EGFP from ER to cell surface (BSC-1 cells [7]): no effects
- Integrity/distribution of actin and tubulin networks (ldlA[mSR-BI] cells): no effects
